Test results: patent US11851642B2, “Test device” (HITACHI HIGH-TECH CORPORATION, priority 2015, dated 2023)
Several values for one entry are separate records, joined by “and”; a condition that tells them apart may be missing. Identical values can stand only once. Blank lines part the entries; values can stand above or below the compound they belong to.

Experiments:
Assay type in all cases: cell-based
Pseudomonas aeruginosa = experiment: antimicrobial susceptibility testing by microscopic observation, circularity of the bacteria
Description: (§1) In addition, when an examination is performed by using the bacteriological testing instrument 1, culture is performed by mixing a bacterial suspension prepared from a specimen with a culture fluid in the culture plate (for example, a culture plate which has 96 wells in total is used) 18. In order to perform the antimicrobial susceptibility testing, antimicrobial agents different from each other are set so as to be respectively contained in the culture fluids in each of the wells in particular concentrations. An order of the culturing is as follows. First, the bacterial suspension is introduced into the culture plate 18. Then, the bacterial suspension is in a state of being mixed with the culture fluid which is included in each of the wells, and the temperature controller 16 is set to a temperature of approximately 35° C. Furthermore, culture is performed by performing incubation such that the temperature of each of the wells in the culture plate 18 reaches the set temperature. Then, in the bacteriological testing instrument 1, while performing the incubation, the bacteria included in each of the wells can be monitored through the microscopic observation optical system. The microscopic observation may be performed for a set period of time from the start of the incubation till the end thereof by continuously monitoring the state of bacterial proliferation. In addition, the monitoring may be performed at the set time after setting appropriate time, and the monitoring result can be compared with the monitoring result when the incubation is started. In addition, similar to the bacteriological testing instrument in the related art, the turbidity of each of the wells may be measured through the turbidity measurement optical system while incubating the culture plate 18. The measured result may be compared with the monitored result of the microscopic observation optical system.
FIG. 22 is a view (graph) illustrating a result obtained by antimicrobial susceptibility testing with respect to meropenem of Pseudomonas aeruginosa. The graph acquires the circularity of the Pseudomonas aeruginosa in the image measured through the microscopic observation, and illustrates the time-dependent change thereof. The plurality of Pseudomonas aeruginosa are observed in one image, but the circularity of each of the Pseudomonas aeruginosa is acquired, and the value obtained by calculating an average value of the bacteria in the image is plotted. In addition, the circularity is a value calculated by 4π×(area)/(perimeter length)^2. When the bacteria have a completely circular shape, 4π×πr^2/(2πr) ^2=1 is satisfied, and when the bacteria is deviated from a completely circular shape, the perimeter length increases, and thus, the circularity value decreases.
In the graph, in a case where there is no the antimicrobial agent to be plotted by a “rhomboidal (diamond) shape”, the circularity of the Pseudomonas aeruginosa was hardly changed from the start of culture. […] In addition, when the concentration of meropenem of which the decrease in circularity is stopped is 0.5 μg/mL or greater, it is determined that the Pseudomonas aeruginosa becomes extinct. In a case where the bacteria are not extinct, the shape of the bacteria changes. […] The exemplary embodiment is an example in which the time-dependent change of the circularity of the bacteria is plotted instead of plotting the time-dependent change of the areas of the bacteria. However, in this manner, by plotting the time-dependent change of the feature values that become an index for indicating a degree of proliferation or growth of the bacteria in addition to the bacterial numbers or the areas of the bacteria, not only the minimum inhibitory concentration (MIC) of the bacteria but also the minimum bactericidal concentration (MBC) can be determined.

[1] = tested on: Enterococcus faecalis (ATCC29212); experiment: antimicrobial susceptibility testing by microscopic observation, areas of the bacteria; design: key: Waiting is determined, and “W” is displayed; Growth is determined, and “G” is displayed; Inhibit is determined, and “I” is displayed
Description: as §1, with “The microscopic observation may be performed for a set period of time from the start of the incubation till the end thereof by continuously monitoring the state of bacterial proliferation. In addition, the monitoring may be performed at the set time after setting appropriate time, and the monitoring result can be compared with the monitoring result when the incubation is started.” left out
The processor determines whether the bacteria proliferate or the proliferation is interrupted under the corresponding culture condition, based on the microscopic image to which the above-described necessary treatments are performed. […] More specifically, based on the image after the treatment illustrated in FIGS. 4 to 6, for example, the areas of the bacteria are calculated, and it is determined whether or not the proliferation is performed by creating the graph as illustrated in FIG. 12. […]

[2] = tested on: Staphylococcus aureus separated from the patient B; experiment: as above; conditions: for antimicrobial susceptibility determination (comparison with the break points): FIG. 20(b)
Source text: as §1, with “In” for “In addition, when an examination is performed by using the bacteriological testing instrument 1, culture is performed by mixing a bacterial suspension prepared from a specimen with a culture fluid in the culture plate (for example, a culture plate which has 96 wells in total is used) 18. In”
(§2) The processor determines whether the bacteria proliferate or the proliferation is interrupted under the corresponding culture condition, based on the microscopic image to which the above-described necessary treatments are performed. The determination whether or not the proliferation is performed, is performed by comparing with the information obtained based on the images at different times in the same container. More specifically, based on the image after the treatment illustrated in FIGS. 4 to 6, for example, the areas of the bacteria are calculated, and it is determined whether or not the proliferation is performed by creating the graph as illustrated in FIG. 12.
(§3) The processor combines the information on whether or not the proliferation is performed under the culture condition with a combination of a certain concentration of the antimicrobial agent, and determines the minimum concentration of the antimicrobial agent (MIC, minimum inhibitory concentration) which becomes interruption of proliferation. Here, the MIC determination is performed with respect to all of the wells provided on the culture plate 21. For example, there are 96 wells on the culture plate 21, and various types of antimicrobial agents having different concentrations (for example, 0 μg/mL, 0.5 μg/mL, 1 μg/mL, 2.0 μg/mL, 4.0 μg/mL, 8.0 μg/mL, 16.0 μg/mL, . . . ) enter the wells.

[3] = tested on: Staphylococcus aureus separated from the patient A; experiment: as above; conditions: for antimicrobial susceptibility determination (comparison with the break points): FIG. 20(a)
Source text: as §1, with “In” for “In addition, when an examination is performed by using the bacteriological testing instrument 1, culture is performed by mixing a bacterial suspension prepared from a specimen with a culture fluid in the culture plate (for example, a culture plate which has 96 wells in total is used) 18. In”
as §2, §3

E coli (ATCC25922) = experiment: antimicrobial susceptibility testing by microscopic observation (binarized images); conditions: ampicillin 2 μg/mL in culture fluid; 180 minutes from the start of culture (FIG. 5(b))
Description: as §1, with “C. […]” for “C. Furthermore, culture is performed by performing incubation such that the temperature of each of the wells in the culture plate 18 reaches the set temperature.”, “system. […]” for “system. The microscopic observation may be performed for a set period of time from the start of the incubation till the end thereof by continuously monitoring the state of bacterial proliferation. In addition, the monitoring may be performed at the set time after setting appropriate time, and the monitoring result can be compared with the monitoring result when the incubation is started.”, “system. […]” for “system.”

[4] = tested on: E coli separated from a patient B; experiment: antimicrobial susceptibility testing by microscopic observation, areas of the bacteria
Description: as §1, §2
as §3, with “wells. Therefore, the minimum concentration (MIC) of the antimicrobial agent which becomes interruption of proliferation can be ascertained.” for “wells.”
(§4) The processor further determines whether the bacteria of the examination target is sensitive (S), resistant (R), and intermediate (I) with respect to the corresponding antimicrobial agent by comparing with a break point (a break point of Clinical and Laboratory Standards Institute (CLSI), a break point of Japanese Society of Chemotherapy, or a break point of EUCAST) which is stored as reference data. […]

[5] = tested on: E coli separated from a patient A; experiment: as above
Description: as §1, §2
as §3, with “wells. Therefore, the minimum concentration (MIC) of the antimicrobial agent which becomes interruption of proliferation can be ascertained.” for “wells.”
as §4

SMILES: C[C@@H](O)[C@H]1C(=O)N2C(C(=O)O)=C(S[C@@H]3CN[C@H](C(=O)N(C)C)C3)[C@H](C)[C@H]12 [meropenem]
concentration at which the circularity continues to decrease: bacteria elongated but not become extinct yet (Pseudomonas aeruginosa; FIG. 22): 0.125 µg/mL and 0.25 µg/mL
concentration at which the decrease in circularity is stopped: bacteria become extinct (can be estimated as MBC) (Pseudomonas aeruginosa; FIG. 22): ≥ 0.5 mg/L
time from the start of culture after which the circularity starts to decrease (Pseudomonas aeruginosa; meropenem 0.25 μg/mL, bacteria elongated (FIG. 22)): 90 min
time-dependent change of the circularity (Pseudomonas aeruginosa; meropenem 0.5 μg/mL (FIG. 22)): slightly decreases
time-dependent change of the circularity (Pseudomonas aeruginosa; meropenem 1.0 μg/mL (FIG. 22)): slightly decreases
time-dependent change of the circularity (Pseudomonas aeruginosa; meropenem 2.0 μg/mL (FIG. 22)): slightly decreases

SMILES: C[C@H]1COc2c(N3CCN(C)CC3)c(F)cc3c(=O)c(C(=O)O)cn1c23 [levofloxacin]
proliferation determination result ([1]; levofloxacin 0.5 μg/mL, after 120 minutes (FIG. 13)): G
proliferation determination result ([1]; levofloxacin 1.0 μg/mL, after 150 minutes (FIG. 13)): I
proliferation determination result ([1]; levofloxacin 2.0 μg/mL, after 150 minutes (FIG. 13)): I

SMILES: CN[C@H](CC(C)C)C(=O)N[C@H]1C(=O)N[C@@H](CC(N)=O)C(=O)N[C@H]2C(=O)N[C@H]3C(=O)N[C@H](C(=O)N[C@H](C(=O)O)c4cc(O)cc(O)c4-c4cc3ccc4O)[C@H](O)c3ccc(c(Cl)c3)Oc3cc2cc(c3O[C@@H]2O[C@H](CO)[C@@H](O)[C@H](O)[C@H]2O[C@H]2C[C@](C)(N)[C@H](O)[C@H](C)O2)Oc2ccc(cc2Cl)[C@H]1O [vancomycin]
antimicrobial susceptibility determination (comparison with the break points) [2]: Intermediate
concentration at which the proliferation is performed ([2]; images within 300 minutes from the start of culture (FIG. 18, FIG. 19(b))): ≤ 0.5 µg/mL
antimicrobial susceptibility determination (comparison with the break points) [3]: sensitivity
concentration at which the proliferation is performed ([3]; images within 300 minutes from the start of culture (FIG. 18, FIG. 19(a))): 0.25 µg/mL

concentration at which the proliferation is interrupted (MIC determination result) ([4]; after 180 minutes from the start of culture (FIG. 16(b))): ≥ 8 mg/L
proliferation determination result (MIC determination result) ([5]; all ampicillin conditions (FIG. 16(a))): determined to proliferate
SMILES: CC1(C)S[C@@H]2[C@H](NC(=O)[C@H](N)c3ccccc3)C(=O)N2[C@H]1C(=O)O [ampicillin]
antimicrobial susceptibility determination (comparison with the break points) [2]: Intermediate
antimicrobial susceptibility determination (comparison with the break points) [3]: resistance
state of the bacteria in the microscopic observation image (E coli (ATCC25922)): elongated
time-dependent change of the areas of the bacteria (standardized by the areas at start of culture) ([4]; ampicillin 4 μg/mL (FIG. 15(b))): increase tends to be stopped
time-dependent change of the areas of the bacteria (standardized by the areas at start of culture) ([4]; ampicillin 8 μg/mL or greater (FIG. 15(b))): area tends to decrease
sensitivity determination (comparison with the break points) ([5]; FIG. 17(a)): durability
time-dependent change of the areas of the bacteria (standardized by the areas at start of culture) ([5]; ampicillin 512 μg/mL, compared to no antimicrobial agent (FIG. 15(a))): slightly increases
